Peptide text beside a SMILES is read from it. * marks the point of attachment. Palmitoyl = CCCCCCCCCCCCCCCC(=O)*
Legend:
[1] = molecular target: T1, human muscarinic receptor M3 (Homo sapiens, UniProt P20309); assay: Inhibition of M3-acetylcholine activation, Fluo-4 NW calcium fluorescence; assay type: cell-based; settings: 50 min, 50 min incubation, 10 nM acetylcholine
T1 construct: expressed in transfected cells; cultured in Ham's F-12 medium
Experimental: (§1) Epithelial stable cell line constitutively expressing human muscarinic receptor M3 was used to assess peptides activity. Cells were seeded in 96-well plates at 50% cell confluence in 100 μL of complete Ham's F-12 medium. After 24 hours, medium was removed and cells were incubated with 90 μL/well of a solution of the peptides of the invention at 100, 50 or 10 μM or DMSO as vehicle. Peptides were dissolved in Fluo-4 NW (Invitrogen) fluorescent calcium probe assay buffer containing Probenecid, following manufacturer's instructions for 50 min at 37° C. in a CO2 incubator. Afterwards, M3 activity was determined by reading the fluorescence in a FLUOstar Galaxy reader (BMG LabTechnologies) using 485 nm filter for excitation and 520 nm for emission, recording signal before and after M3 activation with 10 nM acetylcholine. Fluorescence measurements were normalized to acetylcholine maximum fluorescence signal in vehicle treated cells. Atropine (100 nM) was used as positive control for inhibition. Inhibition values of M3 activity were calculated as percentages by considering maximum fluorescence corresponding to acetylcholine-M3 activation and minimum as non-stimulated cells. Table D details inhibition values of M3 activity inhibition obtained for the peptides of invention.

[2] = molecular target: T1, human muscarinic receptor M3; assay: Time-dependent inhibition of M3 activity, Fluo-4 NW calcium fluorescence; assay type: cell-based; settings: peptide 50 μM, read-out: % Inhibition hM3 receptor activity
Experimental: Peptides of invention were designed to target the intracellular region of M3. Therefore, minimum time required to detect inhibitory effect on M3 activity was evaluated. For this purpose, inhibitory effect of peptides Seq. […] Epithelial stable cell line constitutively expressing human muscarinic receptor M3 was used to assess peptides activity. Cells were seeded in 96-well plates at 50% cell confluence in 100 μL of complete Ham's F-12 medium. After 24 hours, medium was removed and cells were incubated with 90 μL/well of Fluo-4 NW (Invitrogen) fluorescent calcium probe assay buffer containing probenecid, following manufacturer's instructions at 37° C. in a CO2 incubator. Peptides (50 μM), vehicle and atropine were incubated either with the probe (1 hour pre-incubation) or during fluorescence reading (direct effect). Afterwards, M3 activity was recorded for 20 cycles and direct effect peptides were added on cycle 3 after baseline assessment. Acetylcholine was added on cycle 13. Therefore, direct effect of peptides was monitored for 25 minutes. Inhibition values of M3 activity were calculated as percentages by considering maximum fluorescence corresponding to vehicle or non-treated cells acetylcholine-M3 activation and minimum as non-stimulated cells. Table E details inhibition values of M3 activity inhibition obtained for the peptides of invention.

[3] = tested on: sweating induced by pilocarpine; assay: Antiperspirant effect on chronic administration, pilocarpine-induced mouse model of sweat secretion; assay type: in vivo, C57BL6/Rcc male mice; settings: during 4 weeks treatment, 10 and 100 μg/paw
Experimental: This example evaluated chronic effects of peptide of invention Seq. ID No. 2, palmitoylated form, in an in vivo sweating model. This model was established using pilocarpine, a non-selective agonist of muscarinic receptors, in 11-weeks old C57BL6/Rcc male mice. Test compound was locally administered three times per week for 4 weeks (Treatment). Sweat was induced by intraplantar (i.pl) injection of pilocarpine (3 μg/paw) in the right hind paw (Sweating) on weeks 1, 2 and 4 according to the table H.
Test compound is the peptide of the invention having the following sequence (Sequence ID No. 2): • Palm-WMRLK-NH2
Test compound was injected i.pl. on the right hind paw (1, 10 and 100 μg in). Vehicle injected was saline solution.
(§2) Sweating was monitored through amylase activity detection on skin surface using iodine/starch reaction. Dark sweating drops were quantified after 5 minutes induction counting number of drops per paw in each condition. Sample n=5-6 individuals per group. Data are expressed as mean±standard error of the mean (SEM). Raw data was normalized as percentage respect to non-injected stimulated individuals (Control, 100%). Statistical analysis was one-way ANOVA followed by Dunnett's post-hoc multiple comparison test comparing each condition with the corresponding control group, ****p<0.0001 ***p<0.001 **p<0.01, *p<0.05

[4] = molecular target: T1, human muscarinic receptor M3; assay: Dose-response inhibitory effect on M3 activity (IC50); assay type: cell-based
Experimental: as §1
Characterization of Seq. ID No. 1, 3-8 peptides efficiency was obtained by calculating half maximal inhibitory concentration (IC50). For this purpose, experimental procedure regarding cell culture and fluorescent calcium probe assay was followed as described on Example 2. Peptides were assessed at concentrations between 0.1 and 100 μM and incubated for 1 hour together with Fluo-4 NW probe. Afterwards, M3 activity was determined by reading the fluorescence in a FLUOstar Galaxy reader (BMG LabTechnologies) using 485 nm filter for excitation and 520 nm for emission, recording signal before and after M3 activation with acetylcholine. Fluorescence measurements were standardized with regard to the maximum fluorescence signal detected with acetylcholine stimulation in vehicle treated cells. Inhibition values of M3 activity were calculated as percentages by considering maximum fluorescence corresponding to acetylcholine-M3 activation and minimum as non-stimulated cells. Percentage inhibition data was fitted to a sigmoidal curve to obtain IC50. Table F details inhibition values for IC50

[5] = tested on: sweating induced by pilocarpine; assay: Antiperspirant effect on acute administration, pilocarpine-induced mouse model of sweat secretion; assay type: in vivo, C57BL6/Rcc male mice; settings: at 10, 30 and 100 μg
Experimental: This example evaluated acute effects of the peptide of invention Seq. ID No 2, pamitoylated form, in an in vivo sweating model induced by pilocarpine. This model was established using pilocarpine, a non-selective agonist of muscarinic receptors, in 11-weeks old C57BL6/Rcc male mice.
Test compound is the peptide of the invention having the following sequence (Sequence ID No. 2): • Palm-WMMRLK-NH2
Test compound was injected i.pl. on the right hind paw (10, 30 and 100 μg) 30 min before sweating stimulation. Vehicle was saline solution.
as §2, with “condition.” for “condition. Sample n=5-6 individuals per group.”, “100%) and saline-injected non-stimulated individuals (Vehicle, 0%).” for “100%).”

T1 sequence (P20309 whole entry): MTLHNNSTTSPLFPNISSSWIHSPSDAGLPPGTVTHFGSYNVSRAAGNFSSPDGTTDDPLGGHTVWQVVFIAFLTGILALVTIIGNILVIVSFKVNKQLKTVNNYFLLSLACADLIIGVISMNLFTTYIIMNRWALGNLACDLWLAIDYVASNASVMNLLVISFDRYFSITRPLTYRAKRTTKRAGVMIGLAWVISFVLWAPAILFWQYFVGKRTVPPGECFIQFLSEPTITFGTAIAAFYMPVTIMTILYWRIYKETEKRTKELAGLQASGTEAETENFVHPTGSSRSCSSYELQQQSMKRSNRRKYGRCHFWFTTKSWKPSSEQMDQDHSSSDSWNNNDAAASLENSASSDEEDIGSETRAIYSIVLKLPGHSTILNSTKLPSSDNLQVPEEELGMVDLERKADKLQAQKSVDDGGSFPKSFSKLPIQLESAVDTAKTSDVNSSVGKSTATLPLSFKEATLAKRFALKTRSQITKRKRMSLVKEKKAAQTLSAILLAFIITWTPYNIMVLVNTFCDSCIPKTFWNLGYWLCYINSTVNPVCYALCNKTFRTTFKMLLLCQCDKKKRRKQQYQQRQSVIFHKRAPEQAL

## CCCCCCCCCCCCCCCC(=O)N[C@@H](Cc1c[nH]c2ccccc12)C(=O)N[C@@H](CCSC)C(=O)N[C@@H](CCCNC(=N)N)C(=O)N[C@@H](CC(C)C)C(=O)N[C@@H](CCCCN)C(N)=O [Seq. ID No. 2 Palmitoyl, Palm-WMRLK-NH2] (Palmitoyl-WMRLK-NH2)
[1]; peptide 10 μM
  inhibition at 10 µM: 62.5%
[1]; peptide 50 μM
  inhibition at 50 µM: 85.4%
[1]; peptide 100 μM
  inhibition at 100 µM: 88.6%
[2]; 25 min, 25 minutes (direct effect)
  inhibition at 50 µM: 25.5%
[2]; 60 minutes (1 hour pre-incubation)
  inhibition at 50 µM: 81%
[3]
  sweating inhibition: significant sweating inhibition
[4]
  IC50: 7.2 µM
[5]
  reduction of sweating: significantly reduced sweating

Source: patent US12102705B2, “Peptides having inhibitory activity on muscarinic receptor M3” (AZIENDE CHIMICHE RIUNITE ANGELINI FRANCESCO—A.C.R.A.F. …, priority 2018, dated 2024)
